Experimental data from patent US20250197343A1, “CATIONIC LIPID” (TAKEDA PHARMACEUTICAL COMPANY LIMITED, priority 2021, published 2025).

Tests used:
Huh-7 cells = assay: Evaluation of viability using Huh-7 cells (Test Example 2); assay type: cell-based; details: Huh-7 cells, Luc DNA-encapsulated lipid nanoparticles, PBS group = 100%, dead cell group = 0%; for Viability 0.1 μg/ml (%): final concentration 0.1 μg/mL; for Viability 0.3 μg/ml (%): final concentration 0.3 μg/mL
Procedure: Huh-7 cells were seeded in a 96-well plate, and PBS, the Luc DNA-encapsulated lipid nanoparticles obtained in the aforesaid Production Example by using the cationic lipids of the Examples shown in Table 3, or Luc DNA-encapsulated lipid nanoparticles for control which were obtained in the same manner as in the aforesaid Production Example except that a known lipid, MC3 (DLin-MC3-DMA) or ALC-0315, was used instead of the cationic lipids of the Examples were added thereto (final concentration: 0.1 μg/mL and 0.3 μg/mL), followed by evaluation of viability (CellTiter-Fluor Cell Viability Assay, Promega Corporation). Taking the viability of dead cell group as 0% and the viability of the PBS group as 100%, the viability of each of the lipid particle groups was calculated. Higher viability indicates higher safety of the lipid particles. When the cationic lipids of the Examples were used, an improvement in safety compared to the control groups of MC3 and ALC-0315 was observed.

ICrl:CD1 (ICR) mice = assay: Mouse bioluminescence imaging evaluation (Test Example 1); assay type: in vivo; details: Luc DNA-encapsulated lipid nanoparticles 10 mL/kg i.v. to ICR mice; IVIS total flux 15 minutes after luciferin i.p.
Method in brief: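 ICR mice received Luc DNA-encapsulated lipid nanoparticles i.v. (10 mL/kg), then luciferin 15 mg/mL i.p. (10 mL/kg). Ventral IVIS imaging under isoflurane 15 min after luciferin; total flux scored A (≥3.0E+07), B (1.0E+07 to <3.0E+07), C (<1.0E+07).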

[1] = Rate of encapsulation of Luc DNA in lipid nanoparticles; assay type: physicochemical; design: unit: %; details: Luc DNA-encapsulated lipid nanoparticles; cationic lipid:DPPC:cholesterol:GM-020=60:10.6:28:1.4 molar ratio
Method in brief: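 Luc DNA-LNPs (cationic lipid:DPPC:cholesterol:GM-020 = 60:10.6:28:1.4 molar) formed by microfluidic mixing with DNA in 10 mM MES pH 5.5, then dialyzed into PBS. RiboGreen fluorescence measured with and without Triton X-100; encapsulation rate is the encapsulated fraction of total nucleic acid.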

[2] = Particle size of Luc DNA-encapsulated lipid nanoparticles; assay type: physicochemical; details: cationic lipid:DPPC:cholesterol:GM-020=60:10.6:28:1.4 molar ratio
Method in brief: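 LNPs of cationic lipid:DPPC:cholesterol:GM-020 (60:10.6:28:1.4 molar) encapsulating luciferase DNA, made by microfluidic mixing with DNA in 10 mM MES pH 5.5, dialysed into PBS, stored in 20% sucrose/PBS at −80 °C. Size by dynamic light scattering, reported as cumulant Z-average.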

| SMILES | Viability 0.1 μg/ml (%) (Huh-7 cells) | Viability 0.3 μg/ml (%) (Huh-7 cells) | Luminescence (ICrl:CD1 (ICR) mice) | Rate of encapsulation [1] | Particle size (nm) [2] [nm] |
| --- | --- | --- | --- | --- | --- |
| CCCCCCCCC(CCCCCC)C(=O)OCCCCCCN(CCCCO)CCCCCCOC(=O)C(CCCCCC)CCCCCCCC (stereo not drawn) [ALC-0315, reference compound] | 89 | 68 |  |  |  |
| CCCCCCCOC(=O)CCCCC(=O)OCC(COC(=O)CCCCC(=O)OCCCCCCC)(COC(=O)CCCN(C)C)COC(=O)CC(CCCCC)CCCCC [Example 13, 1,1′-[2-({[4-(Dimethylamino)butanoyl]oxy}methyl)-2-{[(3-pentyloctanoyl)oxy]methyl}propane-1,3-diyl] 6,6′-diheptyl dihexanedioate] | 112 | 105 | A (A represents luminescence of 3.0E+07 or more) | 96.3 | 136.5 |
| CCCCCCCOC(=O)CCCCC(=O)OCC(COC(=O)CCCCN(C)C)(COC(=O)CC(CCCCC)CCCCC)COC(=O)CC(CCCCC)CCCCC [Example 18, 2-({[5-(Dimethylamino)pentanoyl]oxy}methyl)-3-[(3-pentyloctanoyl)oxy]-2-{[(3-pentyloctanoyl)oxy]methyl}propyl heptyl hexanedioate] | 110 | 106 | A (A represents luminescence of 3.0E+07 or more) | 96.6 | 138.9 |
| CCCCCCCOC(=O)CCCCC(=O)OCC(COC(=O)CCCCC(=O)OCCCCCCC)(COC(=O)CCCN(C)C)COC(=O)CC(CCC)CCCCCCC (stereo not drawn) [Example 28, 1,1′-[2-({[4-(Dimethylamino)butanoyl]oxy}methyl)-2-{[(3-propyldecanoyl)oxy]methyl}propane-1,3-diyl] 6,6′-diheptyl dihexanedioate] | 113 | 110 | A (A represents luminescence of 3.0E+07 or more) | 94.9 | 137.3 |
| CCCCCC(CCCCC)COC(=O)CCC(=O)OCC(COC(=O)CCCN(C)C)(COC(=O)CCC(=O)OCC(CCCCC)CCCCC)COC(=O)CCC(=O)OCC(CCCCC)CCCCC [Example 37, 1,1′-{2-({[4-(Dimethylamino)butanoyl]oxy}methyl)-2-[({4-oxo-4-[(2-pentylheptyl)oxy]butanoyl}oxy)methyl]propane-1,3-diyl} 4,4′-bis(2-pentylheptyl) dibutanedioate] | 111 | 98 | A (A represents luminescence of 3.0E+07 or more) | 97.0 | 124.1 |
| CCCCCCOC(=O)CCCCCC(=O)OCC(COC(=O)CCCCCC(=O)OCCCCCC)(COC(=O)CCCN(CC)C(C)C)COC(=O)CC(CCCCC)CCCCC [Example 102, 1,1′-(2-[({4-[Ethyl(propan-2-yl)amino]butanoyl}oxy)methyl]-2-{[(3-pentyloctanoyl)oxy]methyl}propane-1,3-diyl) 7,7′-dihexyl diheptanedioate] |  |  | B (B represents luminescence of 1.0E+0.7 or more and less than 3.0E+07) | 91.8 | 139.8 |
| CCCCCC(CCCCC)CC(=O)OCC(COC(=O)CCCCC(=O)OCC(CCC)CCC)(COC(=O)CCCCC(=O)OCC(CCC)CCC)COC(=O)CCCN(CC)C(C)C [Example 116, 1,1′-(2-[({4-[Ethyl(propan-2-yl)amino]butanoyl}oxy)methyl]-2-{[(3-pentyloctanoyl)oxy]methyl}propane-1,3-diyl) 6,6′-bis(2-propylpentyl) dihexanedioate] |  |  | B (B represents luminescence of 1.0E+0.7 or more and less than 3.0E+07) | 97.0 | 122.0 |
| CCCCCC(CCCCC)CC(=O)OCC(COC(=O)CCCCC(=O)OCC(CCCC)CCCC)(COC(=O)CCCCC(=O)OCC(CCCC)CCCC)COC(=O)CCCN(C)C [Example 117, 1,1′-Bis(2-butylhexyl) 6,6′-[2-({[4-(dimethylamino)butanoyl]oxy}methyl)-2-{[(3-pentyloctanoyl)oxy]methyl}propane-1,3-diyl] dihexanedioate] |  |  | B (B represents luminescence of 1.0E+0.7 or more and less than 3.0E+07) | 82.0 | 161.0 |
| CCCCCCOC(=O)C(CCCCCC)C(=O)OCC(COC(=O)CCCCN(C)C)(COC(=O)CC(CCCCC)CCCCC)COC(=O)C(CCCCCC)C(=O)OCCCCCC (stereo not drawn) [Example 122, 1,1′-[2-({[5-(Dimethylamino)pentanoyl]oxy}methyl)-2-{[(3-pentyloctanoyl)oxy]methyl}propane-1,3-diyl] 3,3′-dihexyl bis(hexylpropanedioate)] |  |  | B (B represents luminescence of 1.0E+0.7 or more and less than 3.0E+07) | 96.0 | 152.1 |
| CCCCCOC(=O)CCCCCCC(=O)OCC(COC(=O)CCCCCCC(=O)OCCCCC)(COC(=O)CCCN(C)C)COC(=O)CC(CCCCC)CCCCC [Example 129, 1,1′-[2-({[4-(Dimethylamino)butanoyl]oxy}methyl)-2-{[(3-pentyloctanoyl)oxy]methyl}propane-1,3-diyl] 8,8′-dipentyl dioctanedioate] |  |  | A (A represents luminescence of 3.0E+07 or more) | 92.6 | 144.9 |
| CCCCCCCCC(C(=O)OC)C(=O)OCC(COC(=O)CCCN(CC)C(C)C)(COC(=O)CC(CCCCC)CCCCC)COC(=O)C(CCCCCCCC)C(=O)OC (stereo not drawn) [Example 133, 1,1′-(2-[({4-[Ethyl(propan-2-yl)amino]butanoyl}oxy)methyl]-2-{[(3-pentyloctanoyl)oxy]methyl}propane-1,3-diyl) 3,3′-dimethyl bis(octylpropanedioate)] |  |  | C (C represents luminescence of less than 1.0E+07) | 95.3 | 133.4 |
| CCCCCCCCCCC(C(=O)OC)C(=O)OCC(COC(=O)CCCN(C)C)(COC(=O)CC(CCCCC)CCCCC)COC(=O)C(CCCCCCCCCC)C(=O)OC (stereo not drawn) [Example 134, 1,1′-[2-({[4-(Dimethylamino)butanoyl]oxy}methyl)-2-{[(3-pentyloctanoyl)oxy]methyl}propane-1,3-diyl] 3,3′-dimethyl bis(decylpropanedioate)] |  |  | A (A represents luminescence of 3.0E+07 or more) | 94.5 | 103.0 |
| CCCCCCCCCCC(C(=O)OC)C(=O)OCC(COC(=O)CCCN(CC)C(C)C)(COC(=O)CC(CCCCC)CCCCC)COC(=O)C(CCCCCCCCCC)C(=O)OC (stereo not drawn) [Example 135, 1,1′-(2-[({4-[Ethyl(propan-2-yl)amino]butanoyl}oxy)methyl]-2-{[(3-pentyloctanoyl)oxy]methyl}propane-1,3-diyl) 3,3′-dimethyl bis(decylpropanedioate)] |  |  | A (A represents luminescence of 3.0E+07 or more) | 97.1 | 80.1 |
| CCCCC/C=C\C/C=C\CCCCCCCCC(CCCCCCCC/C=C\C/C=C\CCCCC)OC(=O)CCCN(C)C [MC3, reference compound] | 97 | 49 |  |  |  |
